According to patent US20220370406A1, “METHOD OF TREATING STIMULANT USE DISORDER USING A COMBINATION OF TOPIRAMATE AND PHENTERMINE” (University of Kentucky Research Foundation, priority 2019, published 2022):

Test system: participants with cocaine use disorder
Assay: Medical safety session: subjective effects questionnaires after intranasal cocaine
Assay type: in vivo, human
Description: Participants completed one, single-blind medical safety session to ensure they could tolerate intranasal cocaine. Intranasal cocaine doses (i.e., 0 [placebo], 10, 20, 40 and 80 mg) were administered in ascending order. Placebo (i.e., 0 mg) was administered at 0900 hours. The subjective-effect questionnaires and cardiovascular measures described below were completed 30 minutes before placebo administration (i.e., 0830 hours), immediately following and at 15-minute intervals for 45 minutes. Subsequent cocaine administrations were separated by 45 minutes.

[1] = Cocaine 40 mg, Topiramate (0 mg/day) group
[2] = Cocaine 40 mg, Topiramate (50 mg/day) group
[3] = Cocaine 40 mg, Topiramate (100 mg/day) group
[4] = Cocaine 80 mg, Topiramate (0 mg/day) group
[5] = Cocaine 80 mg, Topiramate (50 mg/day) group
[6] = Cocaine 80 mg, Topiramate (100 mg/day) group

COC(=O)[C@H]1[C@@H](OC(=O)c2ccccc2)C[C@@H]2CC[C@H]1N2C [Cocaine, cocaine]
Adjective Rating Scales Sedative, mean peak effect [1]: 3.2 | Adjective Rating Scales Stimulant, mean peak effect [1]: 0.0 | Drug-Effect Questionnaire Active-Alert-Energetic, mean peak effect [1]: 26.0 | Drug-Effect Questionnaire Any Effect, mean peak effect [1]: 33.3 | Drug-Effect Questionnaire Bad Effects, mean peak effect [1]: 9.0 | Drug-Effect Questionnaire Euphoric, mean peak effect [1]: 10.6 | Drug-Effect Questionnaire Good Effects, mean peak effect [1]: 33.9 | Drug-Effect Questionnaire High, mean peak effect [1]: 29.5 | Drug-Effect Questionnaire Irregular Heart Beat, mean peak effect [1]: 7.4 | Drug-Effect Questionnaire Like Drug, mean peak effect [1]: 36.1 | Drug-Effect Questionnaire Nausea-Queasy-Sick, mean peak effect [1]: 3.2 | Drug-Effect Questionnaire Nervous-Anxious, mean peak effect [1]: 10.1 | Drug-Effect Questionnaire Performance Impaired, mean peak effect [1]: 10.7 | Drug-Effect Questionnaire Performance Improved, mean peak effect [1]: 10.7 | Drug-Effect Questionnaire Restless, mean peak effect [1]: 10.4 | Drug-Effect Questionnaire Rush, mean peak effect [1]: 28.1 | Drug-Effect Questionnaire Shaky-Jittery, mean peak effect [1]: 9.7 | Drug-Effect Questionnaire Sluggish-Fatigued-Lazy, mean peak effect [1]: 9.0 | Drug-Effect Questionnaire Stimulated, mean peak effect [1]: 21.1 | Drug-Effect Questionnaire Talkative-Friendly, mean peak effect [1]: 16.7 | Drug-Effect Questionnaire Willing to Pay For, mean peak effect [1]: 32.8 | Drug-Effect Questionnaire Willing to Take Again, mean peak effect [1]: 40.6 | Adjective Rating Scales Sedative, mean peak effect [2]: 2.1 | Adjective Rating Scales Stimulant, mean peak effect [2]: 10.1 | Drug-Effect Questionnaire Active-Alert-Energetic, mean peak effect [2]: 24.7 | Drug-Effect Questionnaire Any Effect, mean peak effect [2]: 19.3 | Drug-Effect Questionnaire Bad Effects, mean peak effect [2]: 7.2 | Drug-Effect Questionnaire Euphoric, mean peak effect [2]: 6.2 | Drug-Effect Questionnaire Good Effects, mean peak effect [2]: 17.0 | Drug-Effect Questionnaire High, mean peak effect [2]: 29.9 | Drug-Effect Questionnaire Irregular Heart Beat, mean peak effect [2]: 6.0 | Drug-Effect Questionnaire Like Drug, mean peak effect [2]: 16.7 | Drug-Effect Questionnaire Nausea-Queasy-Sick, mean peak effect [2]: 9.8 | Drug-Effect Questionnaire Nervous-Anxious, mean peak effect [2]: 1.8 | Drug-Effect Questionnaire Performance Impaired, mean peak effect [2]: 1.9 | Drug-Effect Questionnaire Performance Improved, mean peak effect [2]: 10.6 | Drug-Effect Questionnaire Restless, mean peak effect [2]: 2.9 | Drug-Effect Questionnaire Rush, mean peak effect [2]: 30.0 | Drug-Effect Questionnaire Shaky-Jittery, mean peak effect [2]: 2.8 | Drug-Effect Questionnaire Sluggish-Fatigued-Lazy, mean peak effect [2]: 0.1 | Drug-Effect Questionnaire Stimulated, mean peak effect [2]: 22.3 | Drug-Effect Questionnaire Talkative-Friendly, mean peak effect [2]: 13.6 | Drug-Effect Questionnaire Willing to Pay For, mean peak effect [2]: 17.0 | Drug-Effect Questionnaire Willing to Take Again, mean peak effect [2]: 17.4 | Adjective Rating Scales Sedative, mean peak effect [3]: 5.1 | Adjective Rating Scales Stimulant, mean peak effect [3]: 11.8 | Drug-Effect Questionnaire Active-Alert-Energetic, mean peak effect [3]: 13.8 | Drug-Effect Questionnaire Any Effect, mean peak effect [3]: 22.1 | Drug-Effect Questionnaire Bad Effects, mean peak effect [3]: 3.0 | Drug-Effect Questionnaire Euphoric, mean peak effect [3]: 6.7 | Drug-Effect Questionnaire Good Effects, mean peak effect [3]: 24.0 | Drug-Effect Questionnaire High, mean peak effect [3]: 23.6 | Drug-Effect Questionnaire Irregular Heart Beat, mean peak effect [3]: 9.0 | Drug-Effect Questionnaire Like Drug, mean peak effect [3]: 20.8 | Drug-Effect Questionnaire Nausea-Queasy-Sick, mean peak effect [3]: 16.2 | Drug-Effect Questionnaire Nervous-Anxious, mean peak effect [3]: 8.1 | Drug-Effect Questionnaire Performance Impaired, mean peak effect [3]: 4.1 | Drug-Effect Questionnaire Performance Improved, mean peak effect [3]: 5.0 | Drug-Effect Questionnaire Restless, mean peak effect [3]: 9.1 | Drug-Effect Questionnaire Rush, mean peak effect [3]: 20.1 | Drug-Effect Questionnaire Shaky-Jittery, mean peak effect [3]: 8.7 | Drug-Effect Questionnaire Sluggish-Fatigued-Lazy, mean peak effect [3]: 9.1 | Drug-Effect Questionnaire Stimulated, mean peak effect [3]: 16.5 | Drug-Effect Questionnaire Talkative-Friendly, mean peak effect [3]: 13.2 | Drug-Effect Questionnaire Willing to Pay For, mean peak effect [3]: 15.0 | Drug-Effect Questionnaire Willing to Take Again, mean peak effect [3]: 16.4 | Adjective Rating Scales Sedative, mean peak effect [4]: 4.1 | Adjective Rating Scales Stimulant, mean peak effect [4]: 8.5 | Drug-Effect Questionnaire Active-Alert-Energetic, mean peak effect [4]: 25.6 | Drug-Effect Questionnaire Any Effect, mean peak effect [4]: 39.1 | Drug-Effect Questionnaire Bad Effects, mean peak effect [4]: 8.2 | Drug-Effect Questionnaire Euphoric, mean peak effect [4]: 10.5 | Drug-Effect Questionnaire Good Effects, mean peak effect [4]: 33.3 | Drug-Effect Questionnaire High, mean peak effect [4]: 27.7 | Drug-Effect Questionnaire Irregular Heart Beat, mean peak effect [4]: 14.4 | Drug-Effect Questionnaire Like Drug, mean peak effect [4]: 34.6 | Drug-Effect Questionnaire Nausea-Queasy-Sick, mean peak effect [4]: 8.8 | Drug-Effect Questionnaire Nervous-Anxious, mean peak effect [4]: 12.1 | Drug-Effect Questionnaire Performance Impaired, mean peak effect [4]: 10.5 | Drug-Effect Questionnaire Performance Improved, mean peak effect [4]: 11.5 | Drug-Effect Questionnaire Restless, mean peak effect [4]: 10.1 | Drug-Effect Questionnaire Rush, mean peak effect [4]: 27.3 | Drug-Effect Questionnaire Shaky-Jittery, mean peak effect [4]: 13.8 | Drug-Effect Questionnaire Sluggish-Fatigued-Lazy, mean peak effect [4]: 5.7 | Drug-Effect Questionnaire Stimulated, mean peak effect [4]: 21.1 | Drug-Effect Questionnaire Talkative-Friendly, mean peak effect [4]: 17.9 | Drug-Effect Questionnaire Willing to Pay For, mean peak effect [4]: 30.5 | Drug-Effect Questionnaire Willing to Take Again, mean peak effect [4]: 38.4 | Adjective Rating Scales Sedative, mean peak effect [5]: 2.4 | Adjective Rating Scales Stimulant, mean peak effect [5]: 13.2 | Drug-Effect Questionnaire Active-Alert-Energetic, mean peak effect [5]: 31.4 | Drug-Effect Questionnaire Any Effect, mean peak effect [5]: 29.6 | Drug-Effect Questionnaire Bad Effects, mean peak effect [5]: 10.4 | Drug-Effect Questionnaire Euphoric, mean peak effect [5]: 14.7 | Drug-Effect Questionnaire Good Effects, mean peak effect [5]: 24.0 | Drug-Effect Questionnaire High, mean peak effect [5]: 31.8 | Drug-Effect Questionnaire Irregular Heart Beat, mean peak effect [5]: 0.8 | Drug-Effect Questionnaire Like Drug, mean peak effect [5]: 28.4 | Drug-Effect Questionnaire Nausea-Queasy-Sick, mean peak effect [5]: 1.2 | Drug-Effect Questionnaire Nervous-Anxious, mean peak effect [5]: 2.2 | Drug-Effect Questionnaire Performance Impaired, mean peak effect [5]: 1.9 | Drug-Effect Questionnaire Performance Improved, mean peak effect [5]: 11.2 | Drug-Effect Questionnaire Restless, mean peak effect [5]: 7.8 | Drug-Effect Questionnaire Rush, mean peak effect [5]: 28.4 | Drug-Effect Questionnaire Shaky-Jittery, mean peak effect [5]: 4.8 | Drug-Effect Questionnaire Sluggish-Fatigued-Lazy, mean peak effect [5]: 0.0 | Drug-Effect Questionnaire Stimulated, mean peak effect [5]: 31.8 | Drug-Effect Questionnaire Talkative-Friendly, mean peak effect [5]: 14.3 | Drug-Effect Questionnaire Willing to Pay For, mean peak effect [5]: 30.6 | Drug-Effect Questionnaire Willing to Take Again, mean peak effect [5]: 30.3 | Adjective Rating Scales Sedative, mean peak effect [6]: 7.8 | Adjective Rating Scales Stimulant, mean peak effect [6]: 15.7 | Drug-Effect Questionnaire Active-Alert-Energetic, mean peak effect [6]: 24.5 | Drug-Effect Questionnaire Any Effect, mean peak effect [6]: 39.5 | Drug-Effect Questionnaire Bad Effects, mean peak effect [6]: 12.2 | Drug-Effect Questionnaire Euphoric, mean peak effect [6]: 16.2 | Drug-Effect Questionnaire Good Effects, mean peak effect [6]: 27.9 | Drug-Effect Questionnaire High, mean peak effect [6]: 42.0 | Drug-Effect Questionnaire Irregular Heart Beat, mean peak effect [6]: 24.1 | Drug-Effect Questionnaire Like Drug, mean peak effect [6]: 32.4 | Drug-Effect Questionnaire Nausea-Queasy-Sick, mean peak effect [6]: 20.5 | Drug-Effect Questionnaire Nervous-Anxious, mean peak effect [6]: 22.9 | Drug-Effect Questionnaire Performance Impaired, mean peak effect [6]: 12.9 | Drug-Effect Questionnaire Performance Improved, mean peak effect [6]: 9.5 | Drug-Effect Questionnaire Restless, mean peak effect [6]: 11.1 | Drug-Effect Questionnaire Rush, mean peak effect [6]: 36.1 | Drug-Effect Questionnaire Shaky-Jittery, mean peak effect [6]: 22.1 | Drug-Effect Questionnaire Sluggish-Fatigued-Lazy, mean peak effect [6]: 22.0 | Drug-Effect Questionnaire Stimulated, mean peak effect [6]: 31.1 | Drug-Effect Questionnaire Talkative-Friendly, mean peak effect [6]: 16.1 | Drug-Effect Questionnaire Willing to Pay For, mean peak effect [6]: 21.0 | Drug-Effect Questionnaire Willing to Take Again, mean peak effect [6]: 33.6
